The text below walks through data of ChEMBL document CHEMBL1201862, “PubChem BioAssay data set” (2004).

Some test systems named below: A549; BT-549; EKVX; HCC 2998; HCT-15; HL-60; HOP-62; Hs-578T; LXFL 529; M14; MCF7; MDA-MB-231; NCI-H522; OVCAR-5; PC-3; RXF 393; SF-295; SK-OV-3; SW-620; UACC-62.
Common to all, as to assay: NCI-60 cell line screen, 48 h

Molecules are shown by their SMILES.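 Test compounds were applied to cells in 96-well plates for 48 hours at 5 doses. Here, GI50 denotes the concentration required for 50% inhibition of growth.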 Calls of active or inactive are those of the source. Rule as the data show it: active = GI50 up to about 1.1 µM and inactive = higher.

In the case of `CC(C)Cc1ccc(C(C)/C=C2\CCC(CN3CCCCC3)C2=O)cc1` (centres undefined), the GI50 is 20 µM (inactive) in the assay with A549; 18.5 µM (inactive) in the assay on BT-549; 13.6 µM (inactive) in the assay with EKVX; 6.37 µM (inactive) in the assay with HCC 2998; 2.75 µM in the assay on HCT-15; 1.12 µM (inactive) in the assay with HL-60. Further, the GI50 in the assay with HOP-62 is 8.69 µM (inactive); with Hs-578T, 4.71 µM (inactive); in the assay with LXFL 529, 1.91 µM (inactive); in the assay on M14, 6.1 µM (inactive); in the assay on MCF7, 1.64 µM (inactive); with MDA-MB-231, 4.89 µM (inactive). Further, the GI50 in the assay on NCI-H522 was 1.35 µM (inactive); in the assay on OVCAR-5 it was 17.4 µM (inactive); with PC-3 it was 6.31 µM (inactive); in the assay with RXF 393 it was 2.52 µM (inactive); in the assay on SF-295, 13.3 µM (inactive); with SK-OV-3, 20.5 µM (inactive). For the same molecule, the GI50 is 3.45 µM (inactive) with SW-620 and 10.5 µM (inactive) in the assay on UACC-62.
Take `CCOC(=O)CCC(NC(=O)c1ccc(NC(OC)c2nc3cc(C(F)(F)F)ccc3nc2-c2ccccc2)cc1)C(=O)OCC` (centres undefined): the GI50 in the assay on A549 is 18.5 µM (inactive); in the assay on EKVX it was 18 µM (inactive); with HCC 2998, 15.8 µM (inactive); with HCT-15, 14.3 µM; in the assay on HL-60, 2.21 µM (inactive); in the assay with HOP-62, 17 µM (inactive). The GI50 was 7.6 µM (inactive) in the assay with LXFL 529; 15.4 µM (inactive) in the assay with M14; 12.3 µM (inactive) in the assay on NCI-H522; 17.6 µM (inactive) in the assay with OVCAR-5; 13.9 µM (inactive) with RXF 393; 16.2 µM (inactive) with SF-295. Also, the figures for the GI50 in the assay on SK-OV-3, in the assay with SW-620 and in the assay on UACC-62 were 18.1 µM (inactive), 7.62 µM (inactive) and 16.9 µM (inactive), respectively.
For the molecule `CCOC(=O)C1=C(OC(OCC)C(CC)[Se]c2ccccc2)CCC1` (centres undefined), the GI50 in the assay on A549 is 77.4 µM (inactive); in the assay on EKVX, 29.2 µM (inactive); with HCC 2998, 15.2 µM (inactive); in the assay on HCT-15, 14.7 µM; in the assay on HL-60 it was 12.4 µM (inactive); in the assay on HOP-62, 78.5 µM (inactive). In addition, the GI50 in the assay on LXFL 529 is 18.7 µM (inactive); in the assay on M14 it was 15.1 µM (inactive); with NCI-H522 it was 15.6 µM (inactive); in the assay on OVCAR-5 it was 23.1 µM (inactive); in the assay on RXF 393, 19.5 µM (inactive); in the assay on SF-295 it was 16.9 µM (inactive). Also, the GI50 with SK-OV-3 was 92 µM (inactive); with UACC-62, 17.8 µM (inactive).
Take `C=C1Cc2cc(OC)c(OC)c(OC)c2-c2ccc(SC)c(=O)cc21`: the GI50 with A549 is < 0.01 µM (active); in the assay on EKVX, 1.55 µM (inactive); with HCC 2998, < 0.01 µM (active); in the assay with HCT-15 it was less than 0.01 µM; in the assay with HL-60, < 0.01 µM (active); with HOP-62, < 0.01 µM (active). Besides, the GI50 in the assay with LXFL 529 was < 0.01 µM (active); in the assay with M14, < 0.01 µM (active); with NCI-H522 it was < 0.01 µM (active); with OVCAR-5, 0.378 µM (active); in the assay with RXF 393, < 0.01 µM (active); in the assay on SF-295, < 0.01 µM (active). Also, the GI50 with SK-OV-3, in the assay with SW-620 and in the assay on UACC-62 was < 0.01 µM (active) each time.
In the case of `Cc1cc(C(=O)NCCN(C)C)c2nc3ccccc3nc2c1`, the GI50 was 3.88 µM (inactive) in the assay on A549; 8.26 µM (inactive) in the assay on EKVX; 6.38 µM (inactive) with HCC 2998; 2.9 µM in the assay with HCT-15; 3.41 µM (inactive) with HL-60; 2.17 µM (inactive) with HOP-62. Moreover, the GI50 in the assay with LXFL 529 is 8.3 µM (inactive); in the assay on M14 it was 4.98 µM (inactive); in the assay with NCI-H522 it was 16.6 µM (inactive); in the assay on OVCAR-5, 7.43 µM (inactive); in the assay with RXF 393, 5.37 µM (inactive); in the assay on SF-295, 4.55 µM (inactive). Moreover, the GI50 in the assay with SK-OV-3 is 11.7 µM (inactive); in the assay with SW-620, 1.97 µM (inactive); in the assay with UACC-62, 6.32 µM (inactive).
As for `CC1=C(/C(C)=N/NS(=O)(=O)c2ccc(C)cc2)Sc2ccccc2N1`, the GI50 in the assay on A549 is > 100 µM (inactive); in the assay on EKVX it was 68.7 µM (inactive); with HCC 2998, > 100 µM (inactive); with HCT-15 it was greater than 100 µM; with HL-60, 39.4 µM (inactive); with HOP-62 it was > 100 µM (inactive). Further, the GI50 was 79.6 µM (inactive) in the assay with LXFL 529; > 100 µM (inactive) with M14; 46.7 µM (inactive) in the assay on NCI-H522; > 100 µM (inactive) in the assay on OVCAR-5; > 100 µM (inactive) in the assay with RXF 393; 50.5 µM (inactive) in the assay on SF-295. Also, the GI50 in the assay with SK-OV-3 is > 100 µM (inactive); in the assay on SW-620, > 100 µM (inactive); with UACC-62, 32.9 µM (inactive).
